For experiment [1], the system named is C. albicans cells. Description: Candida albicans spot plating after Piroctone Olamine and 409 nm light (Table 4). Type of experiment: cell-based. Also noted: key to spot plated growth (score): +: a continuous fungal lawn; +/−: a lawn with breaks allowing the agar to show; −: 0 to 5 colonies. Here is the method:
Potentiation of Piroctone Olamine by light exposure is also observed in Candida albicans. […] Cells are then diluted as indicated in the left column, and spot plated. Resulting growth is then scored, as explained above.

The subject of experiment [2] is S. cerevisiae BY4741. The note with it: for 17 h growth: YNB Ethanol. The procedure: Cells are grown in the medium of choice, generally one requiring respiration. In the case of Malassezia furfur that medium is modified Dixon medium (mDixon) (per one liter: 36 g malt extract (Difco 0186-17), 20 g ox bile (provided by American Laboratories, Inc., of Omaha, Nebraska, as Lot No. 03130792), 10 ml Tween 40 (Aldrich 27435-6), 6 g peptone (Difco 0118-17), 2 ml oleic acid (Baker 2114-01), and 2 ml glycerol (Sigma G-7893)). [Candida and YPG, Saccharomyces and YNB (without amino acids) to which we added 40 μg/ml each of uracil, histidine, and methionine plus 130 μg/ml leucine and 2% ethanol and 0.1% yeast extract.] Conventional medium may also be used for other microbials. Starting cultures are prepared by diluting a fresh overnight culture that is out of log phase 1:100 and incubating with shaking at 31° C. in a 250 mL shake flask (Corning, 431144) with 20 mL medium shaking at 200-250 rpm for about 3 hours to ensure the cells had returned to growth phase. At this time, the test agent is added to the flasks to afford the final concentration for testing. The cells are cultured for 1 hour with the test agent. At this time, the cells typically have an OD at 600 nm in the range of 0.25 to 0.8. Generally, we isolate 2.5 OD*mLs of cells calculated as desired OD*mLs divided by the OD600 of the cells. These media samples are centrifuged (Beckman Coulter Allegra™ 6KR centrifuge) 10 minutes at RT at 3200 rpm to pellet the cells. The supernatant is poured off and the tubes are set upside down on a folded paper towel to drain off the remains of media. Two and one half milliliters of PBS (Gibco, pH 7.4, without magnesium chloride or calcium chloride, 14190-144) is added and the cells resuspended. One mL of cells is transferred to each of two 12-well plates (Falcon, polystyrene, 353043). One plate is stored in the dark and the other is exposed to the light with the plate cover on the plate. […] When the light exposure is completed, the samples are mixed by slowly vortexing or pipetting and 0.65 mL of each sample is transferred to 13 mL of medium for overnight growth at 31° C. with shaking. The following morning, typically 18 hours later, the ODs at 600 nm are determined. Successful materials are those that show at least a 50% reduction in growth after light exposure relative to a dark sample.
S. cerevisiae is exposed to light from LED flashlights of the indicated wavelength as well as a painter's light/worklight, commonly found at a hardware store, which provides a broad spectrum of wavelengths of light. Yeast has been pretreated as indicated, prior to light exposure.

Where two headings read alike, the source gives them in different places.

In the case of `Cc1cc(CC(C)CC(C)(C)C)n(O)c(=O)c1.NCCO` (stereo not drawn) [Piroctone Olamine, 1-Hydroxy-4-methyl-6-(2,4,4-trimethylpentyl)-2-pyridone monoethanolamine salt], the “spot plated growth (score)” value was “+” in experiment [1] (6 ppm, dilution 1:2, 15 minute 409 nm light); “+” in experiment [1] (6 ppm, dilution 1:2, Dark); “+” in experiment [1] (6 ppm, dilution 1:20, 15 minute 409 nm light); “+” in experiment [1] (6 ppm, dilution 1:20, Dark); “+/−” in experiment [1] (6 ppm, dilution 1:200, 15 minute 409 nm light); “+/−” in experiment [1] (6 ppm, dilution 1:200, Dark). Further, the “spot plated growth (score)” value in experiment [1] (6 ppm, dilution 1:2000, 15 minute 409 nm light) is given as “+/−”; in experiment [1] (6 ppm, dilution 1:2000, Dark), “+/−”; in experiment [1] (12 ppm, dilution 1:2, 15 minute 409 nm light), “+”; in experiment [1] (12 ppm, dilution 1:2, Dark) it was “+”; in experiment [1] (12 ppm, dilution 1:20, 15 minute 409 nm light) it was “+/−”; in experiment [1] (12 ppm, dilution 1:20, Dark), “+”. Further, the “spot plated growth (score)” value in experiment [1] (12 ppm, dilution 1:200, 15 minute 409 nm light) was “+/−”; in experiment [1] (12 ppm, dilution 1:200, Dark) it was “+/−”; in experiment [1] (12 ppm, dilution 1:2000, 15 minute 409 nm light), “− (0 to 5 colonies)”; in experiment [1] (12 ppm, dilution 1:2000, Dark), “+/−”; in experiment [1] (24 ppm, dilution 1:2, 15 minute 409 nm light), “+”; in experiment [1] (24 ppm, dilution 1:2, Dark), “+”. The “spot plated growth (score)” value is given as “+/−” in experiment [1] (24 ppm, dilution 1:20, 15 minute 409 nm light); “+” in experiment [1] (24 ppm, dilution 1:20, Dark); “+/−” in experiment [1] (24 ppm, dilution 1:200, 15 minute 409 nm light); “+/−” in experiment [1] (24 ppm, dilution 1:200, Dark); “− (0 to 5 colonies)” in experiment [1] (24 ppm, dilution 1:2000, 15 minute 409 nm light); “+/−” in experiment [1] (24 ppm, dilution 1:2000, Dark). Also, in experiment [1] (12 and 24 ppm dose, 409 nm light 15 min), the “growth with the addition of light” value is reported as “complete inhibition of growth”.
`[O-]n1ccccc1=S.[O-]n1ccccc1=S.[Zn+2]` [ZPT, zinc salt of 1-hydroxy-2-pyridinethione]: the 17 h growth turned out to be 0.7205 in experiment [2] (0.8 ppm, 395 nm light); 1.418 in experiment [2] (0.8 ppm, 520 nm light); 1.332 in experiment [2] (0.8 ppm, 580 nm light); 0.525 in experiment [2] (0.8 ppm, Broad Spectrum light); 1.5185 in experiment [2] (0.8 ppm, Dark); 0.3435 in experiment [2] (1.6 ppm, 395 nm light). The 17 h growth in experiment [2] (1.6 ppm, 520 nm light) was 1.3615; in experiment [2] (1.6 ppm, 580 nm light) it was 0.9245; in experiment [2] (1.6 ppm, Broad Spectrum light), 0.303; in experiment [2] (1.6 ppm, Dark) it was 1.525. Besides, the “sensitivity of treated yeast to light” value in experiment [2] (ZPT-treated, LED flashlights 395, 520, 580 nm) is “sensitive to a 395 nm flashlight, but not two other wavelengths of light”.

The record behind these values is US11771765B2, “Light augmented treatment method” (The Procter & Gamble Company, priority 2019, dated 2023).
